Reference: the supplement of paper PMC8671470

Key:
Details in all cases: 72 h
BV-173 [1] = system: BV-173
Outline: (§1)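 Seeded in RPMI 1640 at densities within the linear growth range, fifteen myeloid leukaemia cell lines were dispensed into 384-well plates with acoustically pre-printed compounds spanning five tenfold doses from 1 to 10,000 nM, in duplicate. The plates were kept for 72 h at 37 °C in 5% CO2 before luminescent ATP viability was measured and normalised to vehicle and to a positive control at 10 µM. Curves were fitted with a four-parameter log-logistic model. The IC50 was taken from those curves.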

HEL [2] = system: HEL
Outline: as §1

HL-60 [3] = system: HL-60
Outline: as §1

K-562 = system: K-562
Outline: as §1

KCL-22 [4] = system: KCL-22
Outline: as §1

KG-1 [5] = system: KG-1
Outline: as §1

KU-812 [6] = system: KU-812
Outline: as §1

LAMA-84 [7] = system: LAMA-84
Outline: as §1

ML-2 [8] = system: ML-2
Outline: as §1

MOLM-13 [9] = system: MOLM-13
Outline: as §1

MV4-11 [10] = system: MV4-11
Outline: as §1

Mono-Mac-6 [11] = system: Mono-Mac-6
Outline: as §1

NOMO-1 [12] = system: NOMO-1
Outline: as §1

SHI-1 [13] = system: SHI-1
Outline: as §1

THP-1 [14] = system: THP-1
Outline: as §1

BV-173 [15] = experiment: cell viability (% survival relative to DMSO control, bortezomib = 0%); higher = less cytotoxic
Outline: (§2)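 Fifteen myeloid leukaemia cell lines were exposed to compounds at 1, 10, 100, 1000 or 10000 nM in 384-well plates for 72 h at 37 °C and 5% CO2. Viability was read by CellTiter-Glo luminescence and normalised, with vehicle as 100% and a 10 µM positive control as 0%. Values are percent survival averaged over duplicates.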

HEL [16] = experiment: as above
Outline: as §2

HL-60 [17] = experiment: as above
Outline: as §2

KCL-22 [18] = experiment: as above
Outline: as §2

KG-1 [19] = experiment: as above
Outline: as §2

KU-812 [20] = experiment: as above
Outline: as §2

LAMA-84 [21] = experiment: as above
Outline: as §2

ML-2 [22] = experiment: as above
Outline: as §2

MOLM-13 [23] = experiment: as above
Outline: as §2

MV4-11 [24] = experiment: as above
Outline: as §2

Mono-Mac-6 [25] = experiment: as above
Outline: as §2

NOMO-1 [26] = experiment: as above
Outline: as §2

SHI-1 [27] = experiment: as above
Outline: as §2

THP-1 [28] = experiment: as above
Outline: as §2

HL-60 [29] = experiment: area under dose-response curve (viability, 1 nM-10 uM) (fraction (0-1)); higher = more sensitive
Outline: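 In 384-well plates, the full library was rescreened in duplicate on HL-60 cells in RPMI 1640 with 10% FBS, at 1–10,000 nM in five tenfold concentrations, for 72 h at 37 °C, 5% CO2. Each run also held DMSO or 100 nM of one of three metabolic inhibitors. Viability was measured by CellTiter-Glo and normalised to DMSO wells and to wells with proteasome inhibitor, present at 10 μM. Any area under the curve comes from four-parameter log-logistic fitting with drc and PharmacoGx.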

CCC(=O)N1CCN(c2ccc(-n3c(=O)ccc4cnc5ccc(-c6cnc7ccccc7c6)cc5c43)cc2C(F)(F)F)CC1 [Torin1]
Details | IC50 (cell viability) [nM]
BV-173 [1] | 377
HEL [2] | 594
HL-60 [3] | 1750
K-562 | 327
KCL-22 [4] | 251
KG-1 [5] | 295
KU-812 [6] | 191
LAMA-84 [7] | 222
ML-2 [8] | 616
MOLM-13 [9] | 208
MV4-11 [10] | 486
Mono-Mac-6 [11] | 333
NOMO-1 [12] | 672
SHI-1 [13] | > 10000
THP-1 [14] | 1110

Details | area under dose-response curve, co-treatment: AZD3965 100 nM | area under dose-response curve, co-treatment: DMSO vehicle | area under dose-response curve, co-treatment: GSK2194069 100 nM | cell viability, 1 nM [%] | cell viability, 10 nM [%] | cell viability, 100 nM [%] | cell viability, 1000 nM [%] | cell viability, 10000 nM [%]
BV-173 [15] | – | – | – | 111 | 80.7 | 89.1 | 20.9 | 8.44
HEL [16] | – | – | – | 109 | 105 | 99.3 | 36.4 | 14.7
HL-60 [17] | – | – | – | 73.2 | 95.1 | 85.7 | 65.3 | 24.6
HL-60 [29] | 0.0362 | < 0.0301 | < 0.0301 | – | – | – | – | –
KCL-22 [18] | – | – | – | 102 | 110 | 87.8 | 10.9 | 8.17
KG-1 [19] | – | – | – | 94.9 | 89.7 | 81.5 | 29.1 | 26
KU-812 [20] | – | – | – | 97.7 | 87.1 | 73.1 | 24.4 | 20.1
LAMA-84 [21] | – | – | – | 105 | 93.1 | 80.2 | 28.8 | 21.8
ML-2 [22] | – | – | – | 96.1 | 99.7 | 91.5 | 46.5 | 33.5
MOLM-13 [23] | – | – | – | 93 | 77.8 | 70 | 16.2 | 12.9
MV4-11 [24] | – | – | – | 88.9 | 95.7 | 90.8 | 26.1 | 11.1
Mono-Mac-6 [25] | – | – | – | 92.2 | 85.5 | 75.8 | 35.7 | 21.7
NOMO-1 [26] | – | – | – | 109 | 96.2 | 93.4 | 47.5 | 37.1
SHI-1 [27] | – | – | – | 89.8 | 92 | 80.2 | 48.9 | 69.4
THP-1 [28] | – | – | – | 104 | 98.5 | 96.9 | 58.9 | 33.9
